Measured values taken from paper PMC11350787, “Antimicrobial Properties and Cytotoxicity of LL-37-Derived Synthetic Peptides to Treat Orthopedic Infections” (Antibiotics, 2024).
Structures can show the parent of a compound that is named as a salt. Peptide text beside a SMILES is read from it.

Columns and labels:
[1] = tested on: S. epidermidis ATCC 14990; assay: microbe, parasite or virus in culture
Source text: (§1) A total of 18 bacterial strains relevant to orthopedic infections were used for microbiological tests, including 8 ATCC (American Type Culture Collection, ATCC, Manassas, VA, USA) and 10 clinical isolates (CI) from the Laboratory of Clinical Chemistry and Microbiology, IRCCS Ospedale Galeazzi–Sant’Ambrogio of Milan (Italy) strain collection. The ATCC strains were used for the first screening (MIC/MBC) of all the AMPs produced, while the clinical isolates were used for further MIC/MBC assays on selected AMPs. Among CI, S. epidermidis GOI1153754-03-14 has been already characterized and used in previous studies. All the strains were stocked at −80°C and working stocks were stored at −20 °C. At the occurrence, the bacteria were resuscitated in Brain Hearth Infusion (BHI, Millipore, Milan, Italy) broth at 37 °C for 18 h from the working stocks.
(§2) To determine the minimum inhibitory concentration (MIC) and the minimum bactericidal concentration (MBC), ISO20776-1 and Clinical and Laboratory Standards Institute guidelines were followed. A commercial synthetic LL-37 (Aurogene, Rome, Italy) was used as the control in the MIC and MBC assays. A stock solution of each AMP was prepared at 600 µg/mL to achieve a final concentration of 300 µg/mL. […] The MIC was determined according to the aforementioned standard guidelines. The MBC was determined by plating 2 µL of culture from each well of the MIC plates on a Tryptic Soy Agar (TSA, Millipore, Milan, Italy) plate and incubated for 24 h at 37 °C. The concentration at which there was no growth was recorded as MBC. Each experiment was carried out in triplicate. Representative MIC and MBC values for vancomycin and gentamicin were assessed to offer a benchmark comparison for the AMPs. Quality control was conducted with Staphylococcus aureus ATCC 29,213 and vancomycin according to EUCAST guidelines.

S. aureus ATCC 49230 = assay: microbe, parasite or virus in culture
Source text: as §1, §2

S. aureus ATCC 25923 = assay: microbe, parasite or virus in culture
Source text: as §1, §2

P. aeruginosa ATCC 27853 = assay: microbe, parasite or virus in culture
Source text: as §1, §2

[2] = tested on: S. epidermidis ATCC 35984; assay: microbe, parasite or virus in culture
Source text: as §1, §2

S. aureus ATCC 43300 = assay: microbe, parasite or virus in culture
Source text: as §1, §2

E. coli ATCC 25922 = assay: microbe, parasite or virus in culture
Source text: as §1, §2

ATCC strains = tested on: ATCC strains
Source text: as §1, §2

CC[C@H](C)[C@H](NC(=O)[C@H](CCCNC(=N)N)NC(=O)[C@H](CCC(N)=O)NC(=O)[C@@H](NC(=O)[C@@H](NC(=O)[C@H](CCCNC(=N)N)NC(=O)[C@@H](N)CCCCN)[C@@H](C)CC)C(C)C)C(=O)N[C@@H](CCCCN)C(=O)N[C@@H](CC(=O)O)C(=O)N[C@@H](Cc1ccccc1)C(=O)N[C@@H](CC(C)C)C(=O)N[C@@H](CCCNC(=N)N)C(N)=O [KR-12] (H-KRIVQRIKDFLR-NH2)
Minimum Inhibitory Concentration (MIC) ([1]; ATCC 14990, 18 h): >300.00 mg/L
Minimum Bactericidal Concentration (MBC) ([1]; ATCC 14990, 24 h): >300.00 mg/L
Minimum Inhibitory Concentration (MIC) (S. aureus ATCC 49230; ATCC 49230, 18 h): >300.00 mg/L
Minimum Bactericidal Concentration (MBC) (S. aureus ATCC 49230; ATCC 49230, 24 h): >300.00 mg/L
Minimum Inhibitory Concentration (MIC) (S. aureus ATCC 25923; ATCC 25923, 18 h): >300.00 mg/L
Minimum Bactericidal Concentration (MBC) (S. aureus ATCC 25923; ATCC 25923, 24 h): >300.00 mg/L
Minimum Inhibitory Concentration (MIC) (P. aeruginosa ATCC 27853; ATCC 27853, 18 h): >300.00 mg/L
Minimum Bactericidal Concentration (MBC) (P. aeruginosa ATCC 27853; ATCC 27853, 24 h): >300.00 mg/L
Minimum Inhibitory Concentration (MIC) ([2]; ATCC 35984, 18 h): >300.00 mg/L
Minimum Bactericidal Concentration (MBC) ([2]; ATCC 35984, 24 h): >300.00 mg/L
Minimum Inhibitory Concentration (MIC) (S. aureus ATCC 43300; ATCC 43300, 18 h): >300.00 mg/L
Minimum Bactericidal Concentration (MBC) (S. aureus ATCC 43300; ATCC 43300, 24 h): >300.00 mg/L
Minimum Inhibitory Concentration (MIC) (E. coli ATCC 25922; ATCC 25922, 18 h): >300.00 mg/L
Minimum Bactericidal Concentration (MBC) (E. coli ATCC 25922; ATCC 25922, 24 h): >300.00 mg/L
MIC values over all ATCC strains tested (ATCC strains; 18 h): greater than 300 µg/mL

O=C(O)C(F)(F)F [Na-TFA, Trifluoroacetic acid, reference compound]
MBC ([1]; Staphylococcus epidermidis, ATCC14990, 24 h, read-out: Minimum Bactericidal Concentration (MBC)): > 200 mg/L
MIC ([1]; Staphylococcus epidermidis, ATCC14990, read-out: Minimum Inhibitory Concentration (MIC)): > 200 mg/L
MBC (S. aureus ATCC 49230; Staphylococcus aureus, ATCC49230, 24 h, read-out: Minimum Bactericidal Concentration (MBC)): > 200 mg/L
MIC (S. aureus ATCC 49230; Staphylococcus aureus, ATCC49230, read-out: Minimum Inhibitory Concentration (MIC)): > 200 mg/L
MBC (S. aureus ATCC 25923; Staphylococcus aureus, ATCC25923, 24 h, read-out: Minimum Bactericidal Concentration (MBC)): > 200 mg/L
MIC (S. aureus ATCC 25923; Staphylococcus aureus, ATCC25923, read-out: Minimum Inhibitory Concentration (MIC)): > 200 mg/L
MBC (P. aeruginosa ATCC 27853; Pseudomonas aeruginosa, ATCC27853, 24 h, read-out: Minimum Bactericidal Concentration (MBC)): > 200 mg/L
MIC (P. aeruginosa ATCC 27853; Pseudomonas aeruginosa, ATCC27853, read-out: Minimum Inhibitory Concentration (MIC)): > 200 mg/L
MBC ([2]; Staphylococcus epidermidis, ATCC35984, 24 h, read-out: Minimum Bactericidal Concentration (MBC)): > 200 mg/L
MIC ([2]; Staphylococcus epidermidis, ATCC35984, read-out: Minimum Inhibitory Concentration (MIC)): > 200 mg/L
MBC (S. aureus ATCC 43300; Staphylococcus aureus, ATCC43300, 24 h, read-out: Minimum Bactericidal Concentration (MBC)): > 200 mg/L
MIC (S. aureus ATCC 43300; Staphylococcus aureus, ATCC43300, read-out: Minimum Inhibitory Concentration (MIC)): > 200 mg/L
MBC (E. coli ATCC 25922; Escherichia coli, ATCC25922, 24 h, read-out: Minimum Bactericidal Concentration (MBC)): > 200 mg/L
MIC (E. coli ATCC 25922; Escherichia coli, ATCC25922, read-out: Minimum Inhibitory Concentration (MIC)): > 200 mg/L
Bacteriostatic or bactericidal effect (ATCC strains; all ATCC strains, at the concentrations tested (up to 200 µg/mL)): no bacteriostatic or bactericidal effect
